Broadly, the clearance is the volume of plasma or blood freed of the substance per unit of time. The low end stands for inefficient removal, the high end for efficient removal. Usually Cmax stands for the peak of the concentration-time curve. One may read the half-life as the time needed for the level to fall by half in the phase considered. Lower therefore signals rapid decline. For orientation: AUC means concentration integrated over time. Read a high AUC as more exposure. As a reminder, the bioavailability is dose-corrected exposure relative to a reference, in per cent.

The values below come from ChEMBL document CHEMBL1129304, “11-Ketotigogenin cellobioside (pamaqueside): a potent cholesterol absorption inhibitor in the hamster” (J Med Chem, 1996).

Common to all, as to assay type: ADME, organism-based, Canis lupus familiaris
Data set [1] in a line: Pharmacokinetic parameter clearance was determined in fed Beagle dogs after iv administration of 1.5 mg/kg. Also on record: dose 1.5 mg/kg, route intravenous. Conditions: dog, in vivo.
Data set [2] is described as follows: Pharmacokinetic parameter volume was determined in fed Beagle dogs after iv administration of 1.5 mg/kg. Also on record: dose 1.5 mg/kg, route intravenous. To be noted: dog, in vivo, read-out: Volume.
A short description of data set [3]: Pharmacokinetic parameter Cmax has been determined in fed Beagle dogs at a dose of 500 mg/kg. Conditions: dog, in vivo. Also noted: dose 500 mg/kg.
The nature of data set [4]: Pharmacokinetic parameter half-life was determined in fed Beagle dogs after iv administration of 1.5 mg/kg. Also on record: dose 1.5 mg/kg, route intravenous. To be noted: dog, in vivo.
The test system of the next data set is Canis familiaris. Put plainly: Pharmacokinetic parameter AUC has been determined in fed Beagle dogs at a dose of 500 mg/kg. Also on record: dose 500 mg/kg. Conditions: dog, in vivo.
Data set [5] can be described thus: Bioavailability in fed Beagle dogs at a dose of 500 mg/kg. Conditions: dog, in vivo.

`C[C@@H]1CC[C@@]2(OC1)O[C@H]1C[C@H]3[C@@H]4CC[C@H]5C[C@@H](O[C@@H]6O[C@H](CO)[C@@H](O[C@@H]7O[C@H](CO)[C@@H](O)[C@H](O)[C@H]7O)[C@H](O)[C@H]6O)CC[C@]5(C)[C@H]4C(=O)C[C@]3(C)[C@H]1[C@@H]2C` [PAMAQUESIDE] came in with a clearance in data set [1] of 1.4 mL/min/kg. The Vd in data set [2] was 0.5 L/kg. In addition, in data set [3], the maximum concentration (Cmax) is 110 ng/mL. For the same compound, in data set [4], the half-life was 4.5 h. The same compound returned an AUC in the data set on Canis familiaris of 2150 ng·h/mL. The bioavailability in data set [5] turned out to be 0.04%.
